Test results taken from patent US20240132559A1, “COMPOSITIONS AND METHODS FOR MODULATING MYC EXPRESSION” (FLAGSHIP PIONEERING INNOVATIONS V, INC., priority 2020, published 2024).
“Also recorded” adds a separate entry of the source.

Legend:
MYC = MYC mRNA expression by qPCR in human HCC cell lines after LNP transfection; assay type: cell-based; conditions: HepG2, Hep3B and SKHEP1
Protocol: In this example, dCas9-KRAB mRNA was delivered to human HCC cell lines (HepG2, Hep3B and SKHEP1) with individual sgRNA (Table 1 and FIG. 1A-B) targeting it to the CTCF motif (GD-28616), CTCF “anchor” site (GD-28859), or the MYC promoter (GD-28617). The effector mRNA and sgRNA were co-delivered using LNP delivery with SSOP. For controls, both (1) dCas9 (no effector) combined with sgRNA, and (2) untreated cells were used to assess changes. HCC cells were seeded in 96-well plates in growth media (5000 cell/well). LNP formulations (2-2.5 ug/ml) were then added to the cells to transfect the mRNA and sgRNA. All treatments were done in biological triplicate. Timepoints ranging from 24-168 hours were assessed for MYC expression and cell viability. RNA was isolated from four independent experiments using the RNeasy® plus 96-well Kit (Qiagen) following the Manufacture's protocol. RNA samples were retrotranscribed to cDNA using LunaScript® RT SuperMix Kit (NEB) and analyzed by quantitative PCR (qPCR) (in technical triplicates) using a MYC specific TaqMan™ primer/probe set assay with the TaqMan™ Fast Advanced Master Mix (Thermo Scientific). MYC expression was quantified relative to the expression of GAPDH reference genes using the ΔΔCt method. The untreated and dCas9(no-effector) samples were used as calibrators. […]

[1] = system: MYC super-enhancer and MYC promoter region; assay: Targeted bisulfite sequencing of super-enhancer and promoter regions in NCI-H2009; assay type: cell-based, human; conditions: guides 29833 and 29914, 72 hours
Protocol: The CRISPR-dCas9 system was modified by tethering it to epigenetic repressor: MQ1. These molecules modulate transcriptional repression methylating the CpG nucleotides of the DNA. The effector mRNA and super-enhancer guide RNAs (29833 and 29914) were co-delivered using LNP delivery with SSOP with mRNA delivery of GFP or a dCAS9-no effector construct (dCas9-NE) as negative controls. NCSLC cell line NCI-H2009 was seeded in a 6 well plates in growth media (˜100000 cells/well). LNP formulations (2.5 ug/ml) were then added to the cells to transfect the effector mRNA/guide RNA then incubated for 72 hours. DNA was isolated using Lucigen QuickExtract™ DNA extraction kit and methylated regions were determined using targeted bisulfite sequencing of the promoter and super-enhancer regions.

[2] = system: HCC cells (HepG2, Hep3B, SKHEP1, SNU-182, SNU-449); assay: Cell viability (CellTiter-GLO) of human HCC cell lines; assay type: cell-based; conditions: 72 and 168 hours
Source text: This example describes down-regulating MYC1 expression by targeting KRAB effector fused to zinc finger domains to the upstream region directly adjacent to the CTCF motif (GD-28859). In this example, zinc finger-directed KRAB effectors (ZF-KRAB effectors) were designed to bind the anchor site at the DNA region targeted by GD-28859 (FIG. 4A). 7 constructs (dCas-KRAB/GD-59, ZF1-KRAB, ZF2-KRAB, ZF3-KRAB, ZF4-KRAB, ZF5-KRAB, and ZF6-KRAB) were designed and screened in human HCC models (HepG2, Hep3B, SKHEP1). Negative controls for these experiments included untreated cells and dCas9-KRAB/GD-28859 was used as positive control. RNA was isolated from two independent experiments, each done in biological triplicate, using the Rneasy® Plus 96-well Kit (Qiagen) following the Manufacture's protocol. RNA samples were retrotranscribed to cDNA using LunaScript® RT SuperMix Kit (NEB) and analyzed by quantitative PCR (qPCR) (in technical triplicates) using a MYC specific Taqman primer/probe set assay with the TaqMan™ Fast Advanced Master Mix (Thermo Scientific). MYC expression was quantified relative to the expression of GAPDH reference genes using the ΔΔCt method, the untreated and dCas9(no-effector) samples were used as calibrators. Cell viability was assessed by ATP quantification using CellTiter-GLO® Luminescent Cell Viability Assay (Promega #G9241). […]

A549 cells [3] = assay: A549 viability with ZF9-MQ1 and small molecule inhibitors, alone and combined; assay type: cell-based, human; conditions: each agent separately
SKHEP1 and Hep 3B cells = assay: IC50 of sorafenib or JQ1 in combination with bi-cistronic ZF9-MQ1_ZF3-KRAB; assay type: cell-based, human; conditions: with bi-cistronic ZF9-MQ1_ZF3-KRAB at 0.6 and 0.1 ug/ml
Hep 3B cells = assay: JQ1 dose response viability with bi-cistronic ZF9-MQ1_ZF3-KRAB (CellTiter-GLO); assay type: cell-based; conditions: Homo sapiens, Hep3B, 72 h
Source text: (§1) This example evaluates the efficacy of bi-cistronic ZF9-MQ1_ZF3-KRAB in combination with JQ1 (BET inhibitor) in multiple HCC cell lines. […] Later generation BET inhibitors are currently being evaluated in the clinic for hematologic indications; however, their toxicity profile have limited their use. Combination treatments that can increase the potency of BET inhibitors at reduced dose levels could improve BET inhibitor tolerability.
(§2) To evaluate potential synergy between bi-cistronic ZF9-MQ1_ZF3-KRAB and JQ1, Hep 3B or SK-HEP-1 cells were plated in 96 well plates at 10,000 cells per well. Cells were then treated with JQ1 with a dose range between 0.1 and 25 μM, with serial dilution of 1:2. Lipid mix carrying bi-cistronic ZF9-MQ1_ZF3-KRAB was then added to a set of the wells at a dose of 0.1 or 0.6 μg/mL. A set of cells was treated with JQ1 alone to use as control. Following 72-hour treatment, cells were lysed with the CellTiter-GLO® reagent and luminescence was quantified using the Glo Max. Relative cell viability was calculated by averaging the untreated values and dividing each experimental luciferase value by that average.

SK-HEP-1 cells = assay: as above; assay type: cell-based; conditions: Homo sapiens, SK-HEP1, 72 h, SKHEP-1, 72-hour
Source text: as §1, §2

A549 cells [4] = assay: A549 cell viability, ZF9-MQ1 alone and with BET or MEK inhibitors (CellTiter-GLO); assay type: cell-based, human; conditions: 72-hour incubation, single agent
Protocol: This example evaluates the effect of ZF9-MQ1 construct on A549 cell viability when used in combination with varying concentrations of JQ1 inhibitor.
(§3) A549 cells were seeded at 4,000 cells per well in duplicate plates for cell viability analysis. The 96-well plates were treated in triplicate with GFP or ZF9-MQ1 loaded LNPs at 0.5 ug/mL or 1.0 μg/mL in combination with increasing concentrations of the BET inhibitor JQ1 (concentrations up to 6.25 uM) and incubated. Untreated cells and GFP treated cells were used as controls. After 72-hour incubation, one 96-well plate was lysed with CellTiter-GLO® and luminescence was quantified using the GloMax® Discovery plate reader.
This example evaluates the effect of ZF9-MQ1 construct on A549 cell viability when used in combination with varying concentrations of BET762 inhibitor.
as §3, with “μg/mL” for “ug/mL”, “concentrations (concentrations up to 1.25 uM)” for “concentrations”, “BET762” for “JQ1 (concentrations up to 6.25 uM)”
This example evaluates the effect of ZF9-MQ1 construct on A549 cell viability when used in combination with varying concentrations of BET inhibitor, Birabresib.
as §3, with “μg/mL” for “ug/mL”, “concentrations (concentrations up to 0.625 uM for 0.5 μg/ml ZF9-MQ1 treated cells and up to 0.313 uM for 1.0 μg/ml ZF9-MQ1 treated cells)” for “concentrations”, “Birabresib” for “JQ1 (concentrations up to 6.25 uM)”
This example evaluates the effect of ZF9-MQ1 construct on A549 cell viability when used in combination with varying concentrations of MEK inhibitor, Trametinib.
as §3, with “μg/mL” for “ug/mL”, “concentrations” for “concentrations of the BET inhibitor JQ1”, “0.05” for “6.25”, “uM) of the MEK inhibitor Trametinib” for “uM)”, “Untreated cells and GFP treated cells were used as controls.” left out

[5] = bi-cistronic ZF9-MQ1_ZF3-KRAB 0 μg/ml
[6] = bi-cistronic ZF9-MQ1_ZF3-KRAB 0.1 μg/ml
[7] = bi-cistronic ZF9-MQ1_ZF3-KRAB 0.6 μg/ml

| Compound | MYC mRNA down-regulation (MYC; 72 hours) | MYC expression down-regulation (in words) (MYC) | methylation of the distal promoter region [1] | effect on viability (in words) ([2]; HepG2 and Hep3B) | effect on viability (in words) ([2]; SK-HEP-1) | inhibition of A549 cell viability, single agent (A549 cells [3]) | IC50 of JQ1 (SKHEP1 and Hep 3B cells; Hep 3B) | IC50 of JQ1 (SKHEP1 and Hep 3B cells; SKHEP1) | IC50 (Hep 3B cells; [5]) | IC50 (Hep 3B cells; [6]) | IC50 (Hep 3B cells; [7]) | IC50 (SK-HEP-1 cells; [5]) | IC50 (SK-HEP-1 cells; [6]) | IC50 (SK-HEP-1 cells; [7]) | A549 cell viability, each agent separately (A549 cells [4]) |
| --- | --- | --- | --- | --- | --- | --- | --- | --- | --- | --- | --- | --- | --- | --- | --- |
| dCas9-MQ1: dCas9 fused to MQ1, SEQ ID NO: 35 | 50-90% | significantly greater effect on MYC expression than any of the human dCas9-DNMTs examined or dCas9-KRAB; also recorded: down-regulated MYC expression | about 50% | dramatically decreased viability | minimally affected |  |  |  |  |  |  |  |  |  |  |
| Cc1sc2c(c1C)C(c1ccc(Cl)cc1)=N[C@@H](CC(=O)OC(C)(C)C)c1nnc(C)n1-2 [JQ1] |  |  |  |  |  | inhibited cell viability of A549 cells | reduced | reduced | 6600 nM | 600 nM | 200 nM | > 25000 nM | 1900 nM | 1100 nM | inhibited cell viability |
